Reference: PubChem BioAssay (NCI)
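GI50 = concentration required for 50% inhibition of growth. TGI marks complete inhibition of growth.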

Tests used:
Assay in all cases: NCI-60 cell line screen, 384-well format
[1] = tested on: UO-31 renal
[2] = tested on: NCI-H23 lung
[3] = tested on: SF-268 CNS
[4] = tested on: TK-10 renal
[5] = tested on: UACC-62 melanoma
[6] = tested on: MOLT-4 leukemia
[7] = tested on: COLO 205 colon
[8] = tested on: OVCAR-5 ovarian
[9] = tested on: NCI/ADR-RES ovarian
[10] = tested on: SF-539 CNS
[11] = tested on: M14 melanoma
[12] = tested on: HT29 colon
[13] = tested on: RXF 393 renal
[14] = tested on: SNB-19 CNS
[15] = tested on: NCI-H322M lung
[16] = tested on: MCF7 breast
[17] = tested on: HS 578T breast
[18] = tested on: HOP-92 NSCLC
[19] = tested on: HCT-15 colon
[20] = tested on: OVCAR-3 ovarian
[21] = tested on: BT-549 breast
[22] = tested on: LOX IMVI melanoma
[23] = tested on: MALME-3M melanoma
[24] = tested on: SK-MEL-5 melanoma
[25] = tested on: DU-145 prostate
[26] = tested on: SF-295 CNS
[27] = tested on: ACHN renal
[28] = tested on: HOP-62 NSCLC
[29] = tested on: HCC-2998 colon

Q: Cc1cncc(-c2nc(NCCc3c[nH]c4ccccc34)c3ncn(C(C)C)c3n2)c1 was tested. Which TGI [1] did it give?
A: 17.3 µM

Q: And the GI50 [2]?
A: 3.81 µM

Q: What about the TGI [2] of the same compound?
A: 12.8 µM

Q: What about the GI50 [3] of the same compound?
A: 3.93 µM

Q: And the TGI [3]?
A: 12.8 µM

Q: What about the GI50 [4] of the same compound?
A: 3.12 µM

Q: And the TGI [4]?
A: 13.2 µM

Q: And the GI50 [5]?
A: 2.56 µM

Q: What about the TGI [5] of the same compound?
A: 5.81 µM

Q: What about the GI50 [6] of the same compound?
A: 1.87 µM

Q: What about the TGI [6] of the same compound?
A: 3.55 µM

Q: And the GI50 [7]?
A: 2.28 µM

Q: What about the TGI [7] of the same compound?
A: 4.29 µM

Q: And the GI50 [8]?
A: 2.06 µM

Q: What about the TGI [8] of the same compound?
A: 4.73 µM

Q: And the GI50 [9]?
A: 3.29 µM

Q: And the TGI [9]?
A: 9.08 µM

Q: And the GI50 [10]?
A: 2.63 µM

Q: And the TGI [10]?
A: 7.18 µM

Q: What about the GI50 [11] of the same compound?
A: 2.84 µM

Q: And the TGI [11]?
A: 6.11 µM

Q: What about the GI50 [12] of the same compound?
A: 1.71 µM

Q: And the TGI [12]?
A: 3.19 µM

Q: What about the GI50 [13] of the same compound?
A: 1.96 µM

Q: And the TGI [13]?
A: 4.63 µM

Q: And the GI50 [14]?
A: 5.5 µM

Q: And the TGI [14]?
A: 18.8 µM

Q: And the GI50 [15]?
A: 3.06 µM

Q: What about the TGI [15] of the same compound?
A: 10.1 µM

Q: And the GI50 [16]?
A: 3.42 µM

Q: And the TGI [16]?
A: 9.2 µM

Q: What about the GI50 [17] of the same compound?
A: 2.52 µM

Q: What about the TGI [17] of the same compound?
A: 5.41 µM

Q: What about the GI50 [18] of the same compound?
A: 3.76 µM

Q: What about the TGI [18] of the same compound?
A: 10.5 µM

Q: What about the GI50 [19] of the same compound?
A: 1.77 µM

Q: And the TGI [19]?
A: 3.29 µM

Q: What about the GI50 [20] of the same compound?
A: 4.65 µM

Q: What about the TGI [20] of the same compound?
A: 14.3 µM

Q: What about the GI50 [21] of the same compound?
A: 4.91 µM

Q: And the TGI [21]?
A: 15.4 µM

Q: What about the GI50 [22] of the same compound?
A: 4.15 µM

Q: And the TGI [22]?
A: 13.9 µM

Q: And the GI50 [23]?
A: 1.77 µM

Q: And the TGI [23]?
A: 3.24 µM

Q: What about the GI50 [24] of the same compound?
A: 2.5 µM

Q: What about the TGI [24] of the same compound?
A: 7.39 µM

Q: What about the GI50 [25] of the same compound?
A: 3.47 µM

Q: What about the TGI [25] of the same compound?
A: 11.1 µM

Q: What about the GI50 [26] of the same compound?
A: 1.93 µM

Q: And the TGI [26]?
A: 3.93 µM

Q: And the GI50 [27]?
A: 4.17 µM

Q: What about the TGI [27] of the same compound?
A: 13.5 µM

Q: And the GI50 [28]?
A: 2.92 µM

Q: What about the TGI [28] of the same compound?
A: 8.22 µM

Q: And the GI50 [29]?
A: 2.5 µM

Q: What about the TGI [29] of the same compound?
A: 5 µM
